The values below come from patent publication US20100056524A1, “Compound” (priority 2008, published 2010).

Assay type in all cases: biochemical
Assay [1] deals with T1, p38g MAPK (Homo sapiens, UniProt P53778).
T1 construct: All protein kinases were of human origin and encoded full length proteins, unless indicated otherwise; made in house
T1 sequence (P53778 1-367): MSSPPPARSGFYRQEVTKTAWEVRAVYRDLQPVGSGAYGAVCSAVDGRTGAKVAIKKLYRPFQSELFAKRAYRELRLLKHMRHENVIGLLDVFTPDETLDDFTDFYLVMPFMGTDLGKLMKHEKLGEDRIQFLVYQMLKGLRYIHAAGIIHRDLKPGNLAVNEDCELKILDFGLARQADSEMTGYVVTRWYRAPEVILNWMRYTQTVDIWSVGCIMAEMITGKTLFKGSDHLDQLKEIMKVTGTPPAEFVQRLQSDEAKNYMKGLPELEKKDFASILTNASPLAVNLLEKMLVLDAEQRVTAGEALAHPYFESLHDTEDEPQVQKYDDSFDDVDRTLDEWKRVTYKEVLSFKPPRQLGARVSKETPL
The experiment in a line: p38g MAPK protein kinase assay. Conditions: for remaining activity at 10 µM: 10 μM compound; for residual kinase activity p38g MAPK: 1 μm compound; for remaining activity at 1 µM: 1 μM compound. The text has this: (§1) All protein kinases were of human origin and encoded full length proteins, unless indicated otherwise. They were either expressed as glutathione S-transferase (GST) fusion proteins in Escherichia Coli or as hexahistidine (His6)-tagged proteins in insect Sf21 cells. GST fusion proteins were purified by affinity chromatography on glutathione-Sepharose, and His6-tagged proteins on nickel/nitriloacetate-agarose. The procedures for expressing some of the protein kinases used herein have been detailed previously.^8,9 The following sections outline the DNA vectors synthesised and the procedures used to express and purifying protein kinases that have not been reported previously.
(§2) All assays (25.5 μl) were carried out at room temperature (21° C.) and were linear with respect to time and enzyme concentration under the conditions used. Assays were performed for 30 min using Multidrop Micro reagent dispensers (Thermo Electron Corporation, Waltham, Mass. 02454, USA) in a 96-well format. The concentration of magnesium acetate in the assays was 10 mM and the [γ-33P] ATP (800 cpm/pmol) was used at 5, 20 or 50 μM as indicated, in order to be at or below the Km for ATP for each enzyme. Protein kinases assayed at 5 μM ATP were: —ERK1, ERK8, PKBα, MARK3, Aurora C. Protein kinases assayed at 20 μM ATP were: —JNK1, PDK1, CHK1, CHK2, CDK2 and Aurora B. Protein kinases assayed at 50 μM ATP were: —MNK2, IKKepsilon and TBK1.
(§3) The assays were initiated with MgATP, stopped by addition of 5 μl of 0.5 M orthophosphoric acid and spotted on to P81 filterplates using a unifilter harvester (PerkinElmer, Boston, Mass. 02118, USA). The IC50 values of inhibitors were determined after carrying out assays at 10 different concentrations of each compound.
(§4) Unless stated otherwise, enzymes were diluted in 50 mM Tris/HCl pH 7.5, 0.1 mM EGTA, 1 mg/ml BSA, 0.1% (v/v) 2-mercaptoethanol and assayed in 50 mM Tris/HCl pH 7.5, 0.1 mM EGTA, 0.1% (v/v) 2-mercaptoethanol.

Assay [2] has as its target T2, PDK1 (Homo sapiens, UniProt O15530).
T2 construct: 3-phosphoinositide-dependent protein kinase-1 [52-556]; His6; made in house; host or cells: insect Sf21 cells
T2 sequence (O15530 52-556): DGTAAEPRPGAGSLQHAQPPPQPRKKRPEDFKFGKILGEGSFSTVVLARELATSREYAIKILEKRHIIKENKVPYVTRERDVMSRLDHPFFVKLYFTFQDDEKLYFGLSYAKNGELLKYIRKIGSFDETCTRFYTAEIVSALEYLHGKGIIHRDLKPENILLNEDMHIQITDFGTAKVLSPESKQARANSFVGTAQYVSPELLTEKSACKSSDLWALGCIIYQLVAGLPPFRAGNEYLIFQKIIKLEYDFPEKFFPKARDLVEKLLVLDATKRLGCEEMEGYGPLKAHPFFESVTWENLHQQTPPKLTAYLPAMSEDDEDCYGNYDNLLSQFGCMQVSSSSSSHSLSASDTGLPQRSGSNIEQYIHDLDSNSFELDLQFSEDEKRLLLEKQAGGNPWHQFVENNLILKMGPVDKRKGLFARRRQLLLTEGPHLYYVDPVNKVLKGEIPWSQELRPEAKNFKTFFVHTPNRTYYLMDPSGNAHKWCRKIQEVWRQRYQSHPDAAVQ
Put plainly: PDK1 protein kinase assay. The note with it: for remaining activity at 10 µM: 10 μM compound; for residual kinase activity PDK1: 1 μm compound; for remaining activity at 1 µM: 1 μM compound.
From the text: as §1
The following kinases were expressed in Sf21 cells: Aurora B and Aurora C, extra-cellular signal-regulated kinase 8 (ERK8), microtubule affinity regulating kinase 3 (MARK3), protein kinase Bα[118-480][S473D], protein kinase Bβ (PKBβ[120-481][S474D], 3-phosphoinositide-dependent protein kinase-1 [52-556]
as §2, §3, §4

The target in assay [3] is T3, CAMK1 (Homo sapiens, UniProt Q14012).
T3 construct: All protein kinases were of human origin and encoded full length proteins, unless indicated otherwise; made in house
T3 sequence (Q14012 whole entry): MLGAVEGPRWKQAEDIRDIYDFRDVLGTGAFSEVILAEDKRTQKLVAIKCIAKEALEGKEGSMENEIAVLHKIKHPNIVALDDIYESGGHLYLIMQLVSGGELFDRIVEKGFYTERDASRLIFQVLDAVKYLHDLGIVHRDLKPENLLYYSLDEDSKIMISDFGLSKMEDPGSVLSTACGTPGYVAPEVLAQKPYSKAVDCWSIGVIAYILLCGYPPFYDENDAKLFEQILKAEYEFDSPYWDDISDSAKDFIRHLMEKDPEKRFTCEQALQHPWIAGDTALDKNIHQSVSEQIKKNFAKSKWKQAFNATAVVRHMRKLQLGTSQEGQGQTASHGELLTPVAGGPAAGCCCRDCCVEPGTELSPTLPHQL
The experiment in a line: CAMK1 protein kinase assay. The note with it: for remaining activity at 10 µM: 10 μM compound; for residual kinase activity CAMK1: 1 μm compound; for remaining activity at 1 µM: 1 μM compound.
From the text: as §1, §2, §3, §4

Assay [4] deals with T4, CDK2-Cyclin A (Homo sapiens, UniProt P24941).
T4 construct: All protein kinases were of human origin and encoded full length proteins, unless indicated otherwise; GST (cleaved yes); made in house; host or cells: E. coli
Put plainly: CDK2-Cyclin A protein kinase assay. The note with it: for remaining activity at 10 µM: 10 μM compound; for residual kinase activity CDK2-Cyclin A: 1 μm compound; for remaining activity at 1 µM: 1 μM compound.
From the text: as §1
The following proteins were expressed in E. coli: —CHK2[5-543], cyclin-dependent protein kinase 2 (CDK2), MAP kinase-interacting kinase 2 (MNK2), extra-cellular signal-regulated kinase 1 (ERK1).
In order to produce activated forms of Aurora B and Aurora C, insect Sf21 cells were incubated for 1 h with the protein phosphatase inhibitor okadaic acid (50 nM). JNK isoforms were activated with MKK4 and MKK7, MNK2 with p38α MAPkinase; PKBα, PKBβ, with PDK1, and ERK1 with MKK1. To activate CDK2, bacterial pellets expressing cyclin A2 and CDK2 were mixed together, lyse and purified on glutathione Sepharose. The GST-tags were removed by cleavage with PreScission protease and the CDK2-cyclin A2 complex purified by chromatography on SP-Sepharose. It was then activated with CAK1/CDK7 followed by chromatography on nickel-nitrilotriacetate agarose to remove CAK1/CDK7, which binds to this column by virtue of its C-terminal His6 tag. All the other protein kinases were active as expressed.
as §2, §3, §4

Assay [5] deals with T5, PLK1 (Okadaic Acid) (Homo sapiens, UniProt P53350).
T5 construct: All protein kinases were of human origin and encoded full length proteins, unless indicated otherwise; made in house; host or cells: probably Sf21 insect cells treated with okadaic acid (inferred from the row name; the text says this only of Aurora B and C)
T5 sequence (P53350 whole entry): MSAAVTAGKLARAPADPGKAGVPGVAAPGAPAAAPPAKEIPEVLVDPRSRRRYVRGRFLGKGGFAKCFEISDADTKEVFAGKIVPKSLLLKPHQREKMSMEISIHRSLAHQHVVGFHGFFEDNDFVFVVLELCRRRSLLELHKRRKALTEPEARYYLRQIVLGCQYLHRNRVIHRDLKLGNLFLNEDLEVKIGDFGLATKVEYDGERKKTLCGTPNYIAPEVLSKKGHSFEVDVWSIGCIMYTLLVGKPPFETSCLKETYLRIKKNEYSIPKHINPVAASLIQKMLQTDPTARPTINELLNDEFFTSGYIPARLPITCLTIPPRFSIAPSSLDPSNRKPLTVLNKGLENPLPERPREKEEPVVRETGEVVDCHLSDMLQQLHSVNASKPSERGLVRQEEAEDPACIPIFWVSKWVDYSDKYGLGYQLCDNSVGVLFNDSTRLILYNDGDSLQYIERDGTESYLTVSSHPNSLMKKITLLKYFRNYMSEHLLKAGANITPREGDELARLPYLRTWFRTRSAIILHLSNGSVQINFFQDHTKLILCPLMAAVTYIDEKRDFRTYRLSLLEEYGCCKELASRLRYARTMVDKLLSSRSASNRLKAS
The experiment in a line: PLK1 (Okadaic Acid) protein kinase assay. Conditions: for remaining activity at 10 µM: 10 μM compound; for residual kinase activity PLK1 (Okadaic Acid): 1 μm compound; for remaining activity at 1 µM: 1 μM compound.
From the text: as §1, §2, §3, §4

Where [6] appears, read: read-out: residual kinase activity p38g MAPK.
Where [7] appears, read: read-out: residual kinase activity PDK1.
The mark [8] stands for this setting: read-out: residual kinase activity CAMK1.
Setting [9] is: read-out: residual kinase activity CDK2-Cyclin A.
[10] abbreviates: read-out: residual kinase activity PLK1 (Okadaic Acid).
Setting [11] is: p38g MAPK, read-out: residual kinase activity.
[12] abbreviates: PDK1, 20 μM ATP, read-out: residual kinase activity.
[13] abbreviates: CAMK1, read-out: residual kinase activity.
Where [14] appears, read: CDK2-Cyclin A, 20 μM ATP, read-out: residual kinase activity.
Setting [15] is: PLK1 (Okadaic Acid), read-out: residual kinase activity.

Where a name gives a salt, the structure may show the parent alone. Read-outs that look alike come from different tables or passages of the source.

Consider `O=C(NCCCNc1nc(Nc2cccc(F)c2)ncc1Br)C1CCC1` [Compound A, cyclobutanecarboxylic acid {3-[5-bromo-2-(3-fluoro-phenylamino)-pyrimidin-4-ylamino]-propyl}-amide, reference compound], for which the remaining activity at 10 µM in assay [1] (setting [6]) turned out to be 17%; in assay [2] (setting [7]), 1%; in assay [3] (setting [8]), 25%; in assay [4] (setting [9]), 0%; in assay [5] (setting [10]) it was 39%. Further, the “residual kinase activity p38g MAPK” value in assay [1] is recorded as 65%. Moreover, the “residual kinase activity PDK1” value in assay [2] is 6%. Besides, the “residual kinase activity CAMK1” value in assay [3] was 54%. The “residual kinase activity CDK2-Cyclin A” value in assay [4] was determined as 1%. Further, in assay [5], the “residual kinase activity PLK1 (Okadaic Acid)” value came to 95%.

For `O=C(NCCCNc1nc(Nc2cccc(N3CCCC3=O)c2)ncc1C1CC1)c1cccs1` [Example 47, Thiophene-2-carboxylic acid (3-{5-cyclopropyl-2-[3-(2-oxo-pyrrolidin-1-yl)-phenylamino]-pyrimidin-4-ylamino}-propyl)-amide. Hydrochloride salt], the remaining activity at 1 µM in assay [1] (setting [11]) was 97%; in assay [2] (setting [12]), 9%; in assay [3] (setting [13]), 91%; in assay [4] (setting [14]), 70%; in assay [5] (setting [15]), 90%. For the same compound, the remaining activity at 10 µM is 77% in assay [1] (setting [11]); 2% in assay [2] (setting [12]); 73% in assay [3] (setting [13]); 29% in assay [4] (setting [14]); 64% in assay [5] (setting [15]).

For `O=C(NCCCNc1nc(Nc2cccnc2)ncc1C1CC1)c1cccs1` [Example 50, Thiophene-2-carboxylic acid {3-[5-cyclopropyl-2-(pyridin-3-ylamino)-pyrimidin-4-ylamino]-propyl}-amide], the remaining activity at 1 µM came to 93% in assay [1] (setting [11]); 22% in assay [2] (setting [12]); 94% in assay [3] (setting [13]); 33% in assay [4] (setting [14]); 82% in assay [5] (setting [15]). For the same compound, the remaining activity at 10 µM in assay [1] (setting [11]) turned out to be 80%; in assay [2] (setting [12]) it was 4%; in assay [3] (setting [13]), 71%; in assay [4] (setting [14]), 5%; in assay [5] (setting [15]), 60%.

As to `O=C(NCCCNc1nc(Nc2cccc(F)c2)ncc1C1CC1)C1CCC1` [Example 23, Cyclobutanecarboxylic acid {3-[5-cyclopropyl-2-(3-fluoro-phenylamino)-pyrimidin-4-ylamino]-propyl}-amide], the remaining activity at 10 µM came to 91% in assay [1] (setting [6]); 91% in assay [1] (setting [11]); 10% in assay [2] (setting [7]); 10% in assay [2] (setting [12]); 66% in assay [3] (setting [8]); 66% in assay [3] (setting [13]). Moreover, the remaining activity at 10 µM in assay [4] (setting [9]) is 2%; in assay [4] (setting [14]), 2%; in assay [5] (setting [10]) it was 46%; in assay [5] (setting [15]) it was 46%. Also, the “residual kinase activity p38g MAPK” value in assay [1] turned out to be 81%. Moreover, the remaining activity at 1 µM in assay [1] (setting [11]) worked out at 81%; in assay [2] (setting [12]) it was 44%; in assay [3] (setting [13]), 77%; in assay [4] (setting [14]), 17%; in assay [5] (setting [15]), 66%. Besides, the “residual kinase activity PDK1” value in assay [2] is 44%. Moreover, in assay [3], the “residual kinase activity CAMK1” value is recorded as 77%. For the same compound, in assay [4], the “residual kinase activity CDK2-Cyclin A” value is 17%. Besides, in assay [5], the “residual kinase activity PLK1 (Okadaic Acid)” value came out at 66%.
